The source made the active and inactive calls.
Columns and labels:
Beta-galactosidase = Beta-galactosidase (Escherichia coli, UniProt Q8VNN2); assay: Dose response counterscreen for EBI2 assay utilizing the enzyme, b-galactosidase.; assay type: functional
[1] = target: T1, E3 ubiquitin-protein ligase XIAP (Homo sapiens, UniProt P98170); assay: small molecules displacing peptide from XIAP – biochemical, IAP family, fluorescence polarization (AID 1018); assay type: functional
[2] = target: T1, E3 ubiquitin-protein ligase XIAP; assay: Counter Screen using XIAP-Bir3 for Chemical Antagonists of Bir1/2 domains of IAP-family anti-apoptotic proteins. [Related pubchem assays (depositor defined):AID1018, AID1449, AID1514, AID1638, AID1749, AID1750, AID488957, AID488963]
[3] = viability inhibitors of stage V gametocytes – luminescence, dose response (AID 1117278); assay type: functional, cell-based;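 note: gametocytes exposed to compound for 24 hours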
[4] = viability loss in human Jurkat cells – cell-based, luminescence, cytotoxicity control for P. falciparum gametocyte viability project, dose response (AID 1117277); assay type: functional;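 note: potency reflects loss of cellular ATP meaning fewer viable cells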
Protein skinhead-1 = target: T2, Protein skinhead-1 (Caenorhabditis elegans, UniProt P34707); assay type: functional
T2 sequence (P34707 whole entry): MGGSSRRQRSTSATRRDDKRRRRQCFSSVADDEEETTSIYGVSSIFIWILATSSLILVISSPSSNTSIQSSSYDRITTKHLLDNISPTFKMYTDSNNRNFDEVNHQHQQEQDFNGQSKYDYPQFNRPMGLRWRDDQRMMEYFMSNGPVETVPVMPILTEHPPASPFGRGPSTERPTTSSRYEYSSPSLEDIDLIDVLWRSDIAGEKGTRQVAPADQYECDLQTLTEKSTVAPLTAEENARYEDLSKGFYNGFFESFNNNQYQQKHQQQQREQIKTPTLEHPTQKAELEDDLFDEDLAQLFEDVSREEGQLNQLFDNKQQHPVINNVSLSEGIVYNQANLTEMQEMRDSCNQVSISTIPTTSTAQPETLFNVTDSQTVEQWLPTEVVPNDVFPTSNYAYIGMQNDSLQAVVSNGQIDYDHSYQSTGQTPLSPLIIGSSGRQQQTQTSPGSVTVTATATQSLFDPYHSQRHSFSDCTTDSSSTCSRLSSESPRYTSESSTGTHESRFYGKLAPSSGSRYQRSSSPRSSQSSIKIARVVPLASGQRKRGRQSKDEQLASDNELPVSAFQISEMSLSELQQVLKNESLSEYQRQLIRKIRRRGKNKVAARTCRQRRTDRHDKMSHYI

[5] = target: Protein-tyrosine kinase 2-beta (Homo sapiens, UniProt Q14289);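 note: potency of inhibitors of PYK2 kinase phosphorylation of poly-GT substrate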
Chain of Protein-tyrosine kinase 2-beta (Q14289 whole entry): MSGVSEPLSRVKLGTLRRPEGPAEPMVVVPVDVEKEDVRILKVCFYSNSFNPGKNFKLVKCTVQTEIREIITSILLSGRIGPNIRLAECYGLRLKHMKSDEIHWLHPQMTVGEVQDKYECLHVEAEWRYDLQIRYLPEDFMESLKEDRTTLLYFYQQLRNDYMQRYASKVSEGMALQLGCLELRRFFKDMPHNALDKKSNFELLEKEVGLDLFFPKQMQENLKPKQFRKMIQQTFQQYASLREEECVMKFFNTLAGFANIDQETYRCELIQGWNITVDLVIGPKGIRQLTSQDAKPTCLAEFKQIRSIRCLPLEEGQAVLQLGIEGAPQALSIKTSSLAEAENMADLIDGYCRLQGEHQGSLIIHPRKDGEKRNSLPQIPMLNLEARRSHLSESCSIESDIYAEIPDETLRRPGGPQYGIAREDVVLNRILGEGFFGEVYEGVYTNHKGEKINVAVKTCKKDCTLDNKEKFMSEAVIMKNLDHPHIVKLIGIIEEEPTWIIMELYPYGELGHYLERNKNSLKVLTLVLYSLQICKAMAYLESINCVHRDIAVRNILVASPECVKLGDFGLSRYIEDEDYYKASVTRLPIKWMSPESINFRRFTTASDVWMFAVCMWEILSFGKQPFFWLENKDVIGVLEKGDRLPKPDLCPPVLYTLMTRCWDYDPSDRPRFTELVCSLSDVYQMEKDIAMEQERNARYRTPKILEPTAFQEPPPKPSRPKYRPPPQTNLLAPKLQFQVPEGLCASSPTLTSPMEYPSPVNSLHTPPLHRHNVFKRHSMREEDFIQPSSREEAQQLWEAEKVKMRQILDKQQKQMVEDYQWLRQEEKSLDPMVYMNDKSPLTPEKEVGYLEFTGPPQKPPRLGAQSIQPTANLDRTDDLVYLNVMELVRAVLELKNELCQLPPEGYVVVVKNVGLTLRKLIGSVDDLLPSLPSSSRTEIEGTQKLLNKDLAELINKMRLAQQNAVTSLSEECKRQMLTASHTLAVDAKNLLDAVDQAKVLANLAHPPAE

[6] = target: T3, Sentrin-specific protease 8 (Homo sapiens, UniProt Q96LD8); assay type: functional
T3 sequence (Q96LD8 whole entry): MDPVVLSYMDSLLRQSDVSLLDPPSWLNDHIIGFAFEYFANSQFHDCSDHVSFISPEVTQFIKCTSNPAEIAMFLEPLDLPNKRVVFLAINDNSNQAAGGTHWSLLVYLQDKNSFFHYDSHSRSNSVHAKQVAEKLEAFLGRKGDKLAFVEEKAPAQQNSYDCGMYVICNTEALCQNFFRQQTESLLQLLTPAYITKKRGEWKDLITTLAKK

[7] = target: T3, Sentrin-specific protease 8; assay type: functional; remark: listed apart in the source
Estrogen receptor beta = Estrogen receptor beta (Homo sapiens, UniProt Q92731); assay: blockers of SRC-3 recruitment to ERβ – biochemical, ELISA, streptavidin-HRP readout, orthogonal assay, confirmation (AID 1060)
Chain of Estrogen receptor beta (Q92731 whole entry): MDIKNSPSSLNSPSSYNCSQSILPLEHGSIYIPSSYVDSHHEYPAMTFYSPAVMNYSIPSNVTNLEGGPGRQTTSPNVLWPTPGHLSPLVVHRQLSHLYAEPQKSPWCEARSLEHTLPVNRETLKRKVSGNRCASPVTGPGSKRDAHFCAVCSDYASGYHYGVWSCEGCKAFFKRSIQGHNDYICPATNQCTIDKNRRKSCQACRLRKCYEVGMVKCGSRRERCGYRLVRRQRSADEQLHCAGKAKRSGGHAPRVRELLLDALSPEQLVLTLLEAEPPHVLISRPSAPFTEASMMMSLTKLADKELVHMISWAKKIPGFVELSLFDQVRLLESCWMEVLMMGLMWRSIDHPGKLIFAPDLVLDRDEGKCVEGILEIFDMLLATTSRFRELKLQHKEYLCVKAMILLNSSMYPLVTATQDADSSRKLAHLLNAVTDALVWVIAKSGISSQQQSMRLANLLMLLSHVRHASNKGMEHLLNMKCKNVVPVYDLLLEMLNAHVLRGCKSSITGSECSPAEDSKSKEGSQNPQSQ

[8] = viability of uninfected HEp-2 cells – cell-based, HTS, cytotoxicity control for RSV inhibitor project, dose response (AID 2410); assay type: functional; details: human respiratory syncytial virus
[9] = target: T4, Replicative DNA helicase DnaB (Mycobacterium tuberculosis, UniProt P9WMR3); assay: DnaB intein splicing inhibitors, dose response, biochemical, cell-free fluorescence (AID 449749); assay type: functional
T4 sequence (P9WMR3 whole entry): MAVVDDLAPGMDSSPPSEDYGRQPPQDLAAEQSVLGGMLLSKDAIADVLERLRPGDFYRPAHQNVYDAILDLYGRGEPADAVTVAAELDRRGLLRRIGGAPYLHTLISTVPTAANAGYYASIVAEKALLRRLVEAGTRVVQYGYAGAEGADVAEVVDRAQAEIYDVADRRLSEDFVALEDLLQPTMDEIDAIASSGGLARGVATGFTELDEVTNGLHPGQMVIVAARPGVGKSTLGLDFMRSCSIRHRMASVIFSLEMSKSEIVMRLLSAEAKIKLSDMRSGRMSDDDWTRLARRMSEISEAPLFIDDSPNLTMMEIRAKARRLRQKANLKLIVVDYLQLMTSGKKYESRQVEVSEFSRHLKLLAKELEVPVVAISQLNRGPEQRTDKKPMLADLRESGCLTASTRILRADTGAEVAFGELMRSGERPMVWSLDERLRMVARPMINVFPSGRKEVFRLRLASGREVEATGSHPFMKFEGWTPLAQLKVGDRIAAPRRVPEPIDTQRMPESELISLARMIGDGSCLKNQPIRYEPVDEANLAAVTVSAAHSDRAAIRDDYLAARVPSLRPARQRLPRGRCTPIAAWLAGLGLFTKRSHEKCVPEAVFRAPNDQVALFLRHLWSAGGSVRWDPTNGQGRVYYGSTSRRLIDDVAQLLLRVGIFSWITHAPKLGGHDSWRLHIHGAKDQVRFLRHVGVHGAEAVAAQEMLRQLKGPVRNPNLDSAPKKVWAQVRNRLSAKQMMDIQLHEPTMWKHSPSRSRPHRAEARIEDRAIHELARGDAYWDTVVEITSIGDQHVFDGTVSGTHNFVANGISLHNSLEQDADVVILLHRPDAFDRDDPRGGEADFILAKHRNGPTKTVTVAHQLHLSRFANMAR

Protein RecA = target: T5, Protein RecA (Mycobacterium tuberculosis, UniProt P9WHJ3); assay: Fluorescence Cell-Free Homogeneous Dose Retest to Identify Inhibitors of RecA-Intein Splicing Activity. [Related pubchem assays (depositor defined):AID2097, AID2223, AID489010, AID492950]; assay type: functional
T5 sequence (P9WHJ3 whole entry): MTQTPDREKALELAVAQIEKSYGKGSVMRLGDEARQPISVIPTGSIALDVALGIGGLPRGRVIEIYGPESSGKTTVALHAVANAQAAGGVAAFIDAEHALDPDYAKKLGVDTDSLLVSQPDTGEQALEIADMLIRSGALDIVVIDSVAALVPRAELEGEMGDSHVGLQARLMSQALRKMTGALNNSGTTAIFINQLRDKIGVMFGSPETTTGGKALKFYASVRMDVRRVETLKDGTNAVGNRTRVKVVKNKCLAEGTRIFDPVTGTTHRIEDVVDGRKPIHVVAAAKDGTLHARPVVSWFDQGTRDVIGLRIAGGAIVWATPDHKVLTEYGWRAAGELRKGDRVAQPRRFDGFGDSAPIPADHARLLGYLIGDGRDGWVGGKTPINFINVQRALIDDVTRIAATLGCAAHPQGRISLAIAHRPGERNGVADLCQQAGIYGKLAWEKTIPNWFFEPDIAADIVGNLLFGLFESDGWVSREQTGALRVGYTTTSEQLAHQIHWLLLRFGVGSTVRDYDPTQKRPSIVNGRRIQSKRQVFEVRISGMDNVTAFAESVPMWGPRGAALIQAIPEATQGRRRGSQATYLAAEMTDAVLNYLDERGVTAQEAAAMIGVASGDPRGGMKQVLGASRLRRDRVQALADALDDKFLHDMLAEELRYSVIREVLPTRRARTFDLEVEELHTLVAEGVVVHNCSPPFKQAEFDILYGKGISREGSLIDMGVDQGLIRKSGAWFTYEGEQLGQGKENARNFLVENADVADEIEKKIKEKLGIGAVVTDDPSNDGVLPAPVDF

Large T antigen = Large T antigen (Simian virus 40, UniProt P03070); assay type: functional, Betapolyomavirus macacae;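 note: Confirmatory-stage PubChem screen for compounds that inhibit SV40 T antigen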
Chain of Large T antigen (P03070 whole entry): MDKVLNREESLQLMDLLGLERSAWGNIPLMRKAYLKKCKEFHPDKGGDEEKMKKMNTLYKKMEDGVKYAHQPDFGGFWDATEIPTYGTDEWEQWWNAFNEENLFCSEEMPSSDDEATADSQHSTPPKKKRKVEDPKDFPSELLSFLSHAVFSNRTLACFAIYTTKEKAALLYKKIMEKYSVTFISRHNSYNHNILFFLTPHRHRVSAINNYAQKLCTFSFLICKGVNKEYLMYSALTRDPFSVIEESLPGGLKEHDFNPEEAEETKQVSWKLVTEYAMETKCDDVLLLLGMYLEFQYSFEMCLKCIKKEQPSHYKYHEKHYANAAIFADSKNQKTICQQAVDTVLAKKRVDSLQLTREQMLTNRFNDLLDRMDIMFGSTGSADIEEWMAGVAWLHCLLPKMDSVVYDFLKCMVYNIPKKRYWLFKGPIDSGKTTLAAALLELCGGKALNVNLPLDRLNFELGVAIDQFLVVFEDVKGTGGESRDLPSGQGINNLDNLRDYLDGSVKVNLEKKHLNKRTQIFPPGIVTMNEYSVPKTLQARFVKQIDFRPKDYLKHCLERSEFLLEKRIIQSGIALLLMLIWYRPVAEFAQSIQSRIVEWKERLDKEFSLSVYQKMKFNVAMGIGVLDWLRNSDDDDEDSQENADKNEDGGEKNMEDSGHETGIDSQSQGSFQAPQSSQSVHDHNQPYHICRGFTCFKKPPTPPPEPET

HEK293 = assay: EBV LMP1 TES2 canonical NF-kB signalling blockers – cell-based, HEK293, luciferase, cherry-pick, dose response (AID 588343); assay type: functional; details: Homo sapiens
Paired box protein Pax-8 = Paired box protein Pax-8 (Homo sapiens, UniProt Q06710); assay: PAX8 transcriptional activity inhibition in RMG-I – RMG-I cells, luciferase, cherry-pick, dose response (AID 687027); assay type: functional, cell-based;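 note: luciferase reporter driven by Pax8 target thyroperoxidase promoter measured by SteadyGlo luminescence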
Chain of Paired box protein Pax-8 (Q06710 whole entry): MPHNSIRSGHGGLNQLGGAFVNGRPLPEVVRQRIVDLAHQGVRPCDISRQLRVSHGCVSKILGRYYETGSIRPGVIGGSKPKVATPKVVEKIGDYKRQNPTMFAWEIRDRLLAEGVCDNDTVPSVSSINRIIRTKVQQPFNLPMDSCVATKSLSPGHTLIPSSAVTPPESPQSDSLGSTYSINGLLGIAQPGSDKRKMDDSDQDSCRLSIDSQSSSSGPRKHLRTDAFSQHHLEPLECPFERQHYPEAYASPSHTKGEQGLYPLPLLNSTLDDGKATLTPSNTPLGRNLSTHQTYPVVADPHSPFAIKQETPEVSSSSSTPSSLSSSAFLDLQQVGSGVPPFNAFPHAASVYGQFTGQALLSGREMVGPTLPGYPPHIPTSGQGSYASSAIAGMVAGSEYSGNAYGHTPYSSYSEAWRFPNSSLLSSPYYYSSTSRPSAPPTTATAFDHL

[10] = viability loss in THP-1 monocytes – THP-1 cells, cytotoxicity control for Vif-APOBEC3G degradation inhibitor project, dose response (AID 1117359); assay type: functional; details: THP-1
[11] = HIV-1 AD8 envelope cell-cell fusion blockers – cherry-pick, dose response (AID 652062); assay type: functional, cell-based;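 note: luciferase signal from cell-cell fusion driven by HIV-1 clade B AD8 Env; potency is for inhibitors of fusion seen as a drop in luminescence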
[12] = blockers of HIV-1 ZM109 envelope-driven cell-cell fusion – HeLa effector, CEM target cells, luciferase, cherry-pick, dose response (AID 652058); assay type: functional, cell-based;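 note: luciferase signal from HIV-1 Env mediated cell-cell fusion of effector and target cells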
[13] = growth inhibition of yeast DHODH-expressing 3D7 parasites – SYBR Green, dry powder samples, dose response (AID 1159570); assay type: functional, cell-based;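 note: parasite growth measured after 72 hours of compound exposure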
[14] = growth inhibition of PfATP4-mutant resistant parasites – NITD609-resistant line, SYBR Green, dry powder, dose response (AID 1159571); assay type: functional, cell-based;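 note: parasites synchronized at ring stage by sorbitol before testing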
[15] = Dd2 malaria parasite growth inhibition potency – SYBR Green, dry powder samples, dose response (AID 1159566); assay type: functional, cell-based;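 note: potency for growth inhibition with lower SYBR green DNA signal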
[16] = P. falciparum Dd2 growth inhibitors, dose response, SYBR Green, cherry-picked samples (AID 1159567); assay type: functional, cell-based
[17] = toxicity to human HepG2 hepatoma cells – cell-based, plate reader, dry powder samples, cytotoxicity control, dose response (AID 1159569); assay type: functional;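 note: inhibitor potency with signal falling toward the positive control level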

T1 sequence (P98170 whole entry): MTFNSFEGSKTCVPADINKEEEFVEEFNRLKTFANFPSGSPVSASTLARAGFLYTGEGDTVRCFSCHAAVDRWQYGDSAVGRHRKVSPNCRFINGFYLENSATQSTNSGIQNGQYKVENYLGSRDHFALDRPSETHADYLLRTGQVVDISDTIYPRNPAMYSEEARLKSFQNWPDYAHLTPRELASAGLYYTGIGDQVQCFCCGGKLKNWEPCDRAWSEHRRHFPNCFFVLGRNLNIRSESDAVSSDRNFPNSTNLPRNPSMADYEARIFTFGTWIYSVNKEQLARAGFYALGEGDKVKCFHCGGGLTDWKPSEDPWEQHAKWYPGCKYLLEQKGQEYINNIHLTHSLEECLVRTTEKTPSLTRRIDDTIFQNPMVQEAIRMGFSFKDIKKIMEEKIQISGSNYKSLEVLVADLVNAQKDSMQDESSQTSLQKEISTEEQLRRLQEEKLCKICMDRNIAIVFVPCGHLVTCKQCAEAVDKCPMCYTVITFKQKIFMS
Chain of Beta-galactosidase (Q8VNN2 whole entry): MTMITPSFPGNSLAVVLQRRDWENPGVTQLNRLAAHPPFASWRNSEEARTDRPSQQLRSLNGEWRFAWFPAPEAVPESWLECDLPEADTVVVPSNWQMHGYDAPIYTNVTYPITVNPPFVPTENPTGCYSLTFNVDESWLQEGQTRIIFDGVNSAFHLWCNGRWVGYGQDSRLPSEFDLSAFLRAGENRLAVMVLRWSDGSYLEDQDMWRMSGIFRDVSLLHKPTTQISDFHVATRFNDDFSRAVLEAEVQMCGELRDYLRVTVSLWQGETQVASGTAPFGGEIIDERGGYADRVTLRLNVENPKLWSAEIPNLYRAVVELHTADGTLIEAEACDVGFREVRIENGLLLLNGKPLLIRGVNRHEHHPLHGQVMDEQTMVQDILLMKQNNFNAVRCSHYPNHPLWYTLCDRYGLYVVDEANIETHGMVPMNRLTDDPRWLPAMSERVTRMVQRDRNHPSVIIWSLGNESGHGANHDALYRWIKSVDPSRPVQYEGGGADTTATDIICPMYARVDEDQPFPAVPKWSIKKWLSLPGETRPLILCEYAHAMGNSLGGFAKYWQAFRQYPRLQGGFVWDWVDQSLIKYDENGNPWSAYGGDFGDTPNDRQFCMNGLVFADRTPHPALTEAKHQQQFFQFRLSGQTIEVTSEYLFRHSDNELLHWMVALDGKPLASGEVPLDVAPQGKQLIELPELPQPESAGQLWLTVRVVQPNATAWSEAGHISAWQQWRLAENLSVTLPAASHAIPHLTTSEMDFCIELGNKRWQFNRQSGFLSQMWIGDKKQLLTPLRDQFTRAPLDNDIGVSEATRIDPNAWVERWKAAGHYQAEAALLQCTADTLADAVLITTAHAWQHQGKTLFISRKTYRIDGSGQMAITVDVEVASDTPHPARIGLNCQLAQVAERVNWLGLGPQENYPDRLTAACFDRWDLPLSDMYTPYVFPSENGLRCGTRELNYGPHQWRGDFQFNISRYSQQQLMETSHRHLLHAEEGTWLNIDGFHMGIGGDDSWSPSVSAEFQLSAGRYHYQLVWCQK

CCOC(=O)c1cnc(SCC(=O)Nc2cc(C(F)(F)F)ccc2N2CCOCC2)nc1N
IC50 (Beta-galactosidase): > 80 µM (inactive)

COC(=O)c1ccc(C(=O)OC)c(NS(C)(=O)=O)c1
IC50 [1]: > 100 µM (not active)
IC50 [2]: > 100 µM (inactive)

COc1ccc(/C=C/C(=O)N2CCN(c3ccccn3)CC2)cc1
IC50 (Beta-galactosidase): > 80 µM (inactive)

CN(C)c1nc(N(C)C)n(C(=O)c2cccs2)n1
IC50 [3]: > 109 µM (inactive)
IC50 [4]: > 83.3 µM (inactive)

C=CCSc1nnc(-c2ccc(Cl)cc2Cl)o1
IC50 [1]: > 100 µM (not active)
IC50 (Protein skinhead-1): 7.91 µM (active)
IC50 [2]: > 100 µM (inactive)

Cc1cc(OCC(=O)Nc2ccc(N3CCN(C(=O)c4ccco4)CC3)cc2)cc(C)c1Cl
IC50 [5]: 5.96 µM (active)

Cc1cc2c(NC(=O)CC(C)(C)CC(=O)O)cccc2nn1
IC50 [6]: 8.03 µM (active)
IC50 [7]: 15.1 µM (active)

CCN1CCc2c(sc(N)c2C#N)C1
IC50 [5]: 23.6 µM (not active)
IC50 (Estrogen receptor beta): 6.55 µM (not active)

N#Cc1ccccc1OCC(=O)OCC(=O)N1CCN(C(=O)c2ccco2)CC1
IC50 [3]: > 109 µM (inactive)
IC50 [4]: > 83.3 µM (inactive)

CCN(CC)C(=O)CSc1nc(N)c2c3c(sc2n1)CC(C)CC3 (centres undefined)
CC50 [8]: 8.74 µM (active)
IC50 [5]: > 69.5 µM (not active)

COc1ccc(OCC(=O)N2CCN(c3nnc(-c4ccccc4)c4ccccc34)CC2)cc1
IC50 (Beta-galactosidase): > 80 µM (inactive)

CCOc1cc(NC2CS(=O)(=O)CC2O)c(OCC)cc1NC(=O)c1ccccc1 (centres undefined)
IC50 [6]: 45.9 µM (active)
AC50 [9]: 52.8 µM (active)
EC50 (Protein RecA): > 380 µM (inactive)
IC50 [7]: 34.7 µM (active)
IC50 (Large T antigen): 31.1 µM (active)

Nc1nc(NC(=O)c2ccccc2)nn1-c1ccccc1
IC50 [3]: > 109 µM (inactive)
IC50 [4]: > 83.3 µM (inactive)

CN(Cc1ccccc1)C(=O)c1ccc2c(c1)NC(=O)C(N1CCOCC1)S2 (centres undefined)
IC50 [1]: > 100 µM (not active)
IC50 [2]: > 100 µM (inactive)

Cc1cc(NC(=O)COC(=O)c2cccc(O)c2)no1
IC50 [3]: > 109 µM (inactive)
IC50 [4]: > 83.2 µM (inactive)

C=C1C(=O)C2=CC1CCC(=O)C1(C)CCC(OC(C)=O)C(C)(C)C1CC2O (centres undefined)
AC50 (HEK293): 5.72 µM (active)
AC50 (Paired box protein Pax-8): 1.43 µM (active)
CC50 [10]: 4.83 µM (active)

O=C(Nc1ccc(Br)cn1)C1CCN(S(=O)(=O)c2cccs2)CC1
CC50 [10]: > 40 µM (active)

N#Cc1cccc(Oc2ccc(S(=O)(=O)N3CCCC3)cn2)c1
CC50 [10]: > 40 µM (active)

C[C@@H]1CCCCO[C@H](CN(C)C)[C@H](C)CN([C@@H](C)CO)C(=O)c2cc(NS(=O)(=O)c3cn(C)cn3)ccc2O1
AC50 [11]: 2.6 µM (active)
AC50 [12]: 1.36 µM (active)

CNC[C@@H]1Oc2cc(C#Cc3cccnc3)ccc2S(=O)(=O)N([C@H](C)CO)C[C@H]1C
AC50 [13]: 2.13 µM (active)
AC50 [14]: 0.984 µM (active)
AC50 [15]: 1.02 µM (active)
AC50 [16]: 1.61 µM (active)
AC50 [17]: 93.8 µM (active)

CN(C)CC(=O)N1C[C@@H]2N[C@H](C1)[C@@H]2c1ccc(/C=C/c2ccccc2)cc1
AC50 [13]: 4.57 µM (active)
AC50 [14]: 4.64 µM (active)
AC50 [15]: 1.94 µM (active)
AC50 [16]: 2.01 µM (active)
AC50 [17]: 23.2 µM (active)

C[C@H](CO)N1C[C@H](C)[C@H](CN(C)C(=O)Cc2ccncc2)Oc2cc(C#CC3CCCC3)ccc2S1(=O)=O
AC50 [13]: 4.97 µM (active)
AC50 [14]: 4.96 µM (active)
AC50 [15]: 2.28 µM (active)
AC50 [16]: 2.13 µM (active)
AC50 [17]: 97 µM (active)

C[C@H]1CN([C@@H](C)CO)C(=O)c2cc(C#Cc3cccc(F)c3)cnc2O[C@@H]1CN(C)C(=O)C1CCCCC1
AC50 [13]: 1.37 µM (active)
AC50 [14]: 0.742 µM (active)
AC50 [15]: 0.495 µM (active)
AC50 [16]: 0.686 µM (active)
AC50 [17]: 22.1 µM (active)

CN(C)CCN1CCc2ccccc21
IC50 [5]: 6.46 µM (active)
IC50 (Estrogen receptor beta): 0.0579 µM (not active)

From ChEMBL document CHEMBL1201862, “PubChem BioAssay data set” (2004)
